In patent US8791159B2, “Compound capable of binding S1P receptor and pharmaceutical use thereof” (Ono Pharmaceutical Co., Ltd., priority 2003, dated 2014):

How the values were obtained:
EDG-6 = biological target: T1, EDG-6 (Homo sapiens, UniProt O95977); assay: Inhibitory activity on binding of [3H]-S1P to EDG-6 (EDG-6-overexpressing cells); details: competitive binding test, 5 nM D-erythro-sphingosine-3-[3H]-1-phosphate, 60 minutes on ice
T1 construct: expressed in transfected cells; host or cells: EDG-6-overexpressing cells
T1 sequence (O95977 1-384): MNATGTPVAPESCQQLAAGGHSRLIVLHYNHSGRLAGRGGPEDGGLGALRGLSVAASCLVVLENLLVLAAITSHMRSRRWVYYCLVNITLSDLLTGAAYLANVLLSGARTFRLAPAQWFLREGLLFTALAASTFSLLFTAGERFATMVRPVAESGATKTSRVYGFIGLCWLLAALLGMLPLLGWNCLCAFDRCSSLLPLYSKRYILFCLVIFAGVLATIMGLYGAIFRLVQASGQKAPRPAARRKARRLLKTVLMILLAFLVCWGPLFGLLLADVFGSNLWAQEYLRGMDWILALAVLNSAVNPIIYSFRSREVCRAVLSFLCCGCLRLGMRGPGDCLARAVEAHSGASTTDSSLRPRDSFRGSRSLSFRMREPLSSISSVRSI
Experimental: Firstly, EDG-6-overexpressing cells were seeded at a density of 2×10^5 cells/well into a 12-well plate. After 12 hours, the cells were washed with 0.5 mL of an assay buffer twice. In a saturation binding test for determining the KD value and the Bmax value, the cells were incubated in 0.4 mL of an assay buffer containing D-erythro-sphingosine-3-[^3H]-1-phosphate at various concentrations and 2 μL of 0.01 N NaOH for 60 minutes on ice. Then, the wells were washed with 0.8 mL of the assay buffer twice and the whole cells were disrupted by adding 0.1 mL of 0.5% TCA (trichloroacetic acid), 0.4 mL of a lysis buffer (2% Na2CO3, 4% NaOH, 0.1% SDS) and 0.1 mL of 1 N hydrochloric acid. Then, 0.5 mL of the lysed solution was collected in a glass vial (Packard) with a pipette. After adding 7 mL of ACSII (Amersham), the mixture was thoroughly stirred and the radioactivity was measured with a liquid scintillation counter (TRI-CARB 2900TR Packard), thereby determining the KD value. The value of the nonspecific binding was determined by adding unlabeled S1P at a final concentration of 25 μM as a substitute for 0.01 N NaOH. […] The subsequent procedures following washing were carried out as in the saturation binding test and the radioactivity was measured as described above.

lymphocyte in blood = assay: Counting the number of lymphocyte in blood (1); type: in vivo, male Sprague-Dawley rats; details: oral, 10, 30 and 100 mg/kg, 4 hours after the administration, rat
Experimental: Test compounds were orally administered to male Sprague-Dawley rats (Charles Riber Laboratories, Japan, Ltd., 6-week-old at using). Four to 72 hours after the administration, the blood was collected from the aorta abdominalis under ether anesthesia. Using a portion of the thus collected blood, the number of blood cells were counted and the number of lymphocyte, neutrophil and platelet were counted. Each group had 4 or 5 animals.

Human EDG-1 = Human EDG-1 (Homo sapiens, UniProt P21453); assay: Agonistic activity against EDG by monitoring intracellular calcium ion concentration [Ca2+]i; type: cell-based; details: human EDG-1 overexpressing CHO cells, increase ratio of [Ca2+]i
Experimental: Human EDG-1, EDG-3, EDG-5 or EDG-8 gene overexpressing Chinese Hamster Ovary (CHO) cells were cultured in Ham's F12 medium (manufactured by GIBCO BRL) containing 10% FBS (fetal bovine serum), penicillin/streptomycin and blasticidin (5 μg/ml). The cultured cells were incubated in a 5 μM Fura2-AM solution (Ham's F12 medium containing 10% of FBS, 20 mM HEPES buffer (pH7.4) and 2.5 mM probenecid) at 37° C. for 60 minutes. After washing once with Hanks solution containing […] buffer (pH7.4) and 2.5 mM probenecid, the plate was soaked in the same solution until assay. Then, the plate was set on a fluorescent drug screening system (FDSS 6000; Hamamatsu Photonics) and the intracellular calcium ion concentration was measured without stimulation for 30 seconds. A test compound (final concentration: 1 nM to 10 μM, dimethylsulfoxide (DMSO) solution) was added and S1P (final concentration: 100 nM) was added 5 minutes thereafter. Then, the increase in the intracellular calcium ion concentration was measured before and after the addition of S1P at intervals of 3 seconds (excitation wavelength: 340 nm and 380 nm, fluorescence wavelength: 500 nm). […]

[1] = cited from earlier work
[2] = after administration; cited from earlier work
S1P receptor = details: cited from earlier work

Chain of Human EDG-1 (P21453 whole entry): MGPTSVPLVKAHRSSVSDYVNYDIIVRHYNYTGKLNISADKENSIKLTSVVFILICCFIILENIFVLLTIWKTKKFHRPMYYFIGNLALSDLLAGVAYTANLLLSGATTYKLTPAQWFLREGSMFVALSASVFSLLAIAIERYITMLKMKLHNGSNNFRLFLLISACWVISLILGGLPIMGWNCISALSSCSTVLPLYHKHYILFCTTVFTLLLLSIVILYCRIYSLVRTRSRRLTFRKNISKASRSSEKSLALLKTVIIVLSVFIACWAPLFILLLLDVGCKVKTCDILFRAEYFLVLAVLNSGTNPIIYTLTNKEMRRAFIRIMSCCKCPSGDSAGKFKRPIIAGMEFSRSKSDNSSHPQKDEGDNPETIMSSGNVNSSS

CC1=C(CNCCC(=O)O)CCc2cc(OCCCCc3ccccc3)ccc21.Cl showed a melting point of 162.5 to 163.3 °C.
CC1=C(CN2CC(C(=O)O)C2)CCc2cc(OCCC(c3ccccc3)c3ccccc3)ccc21.Cl showed a melting point of 77 to 83 °C.
In the case of CC1=C(CN2CC(C(=O)O)C2)CCc2cc(OCC(C)(C)Cc3ccccc3)ccc21.Cl, the melting point is reported as 124 to 127 °C.
In the case of O=C(O)CCNCCCc1ccc(OCCCCCc2ccccc2)cc1 [3-[3-(4-(5-phenylpentyloxy)phenyl)propylamino]propanoic acid], the Ki (EDG-6) is reported as 352 nM, the “number of lymphocyte in blood” value (lymphocyte in blood) is reported as “concentration-dependently lowered the number of lymphocyte in blood” and the EC50 (Human EDG-1) is reported as 255 nM.
For CCCCCCCCc1ccc(CCC(N)(CO)CO)cc1.Cl [FTY720, 2-amino-2-[2-(4-octylphenyl)ethyl]-1,3-propanediol hydrochloride], the “incidence rate of acute rejection” value ([1]; human kidney transplantation) is given as “significantly lowering the incidence rate of acute rejection”, the “lymphocyte count in the peripheral blood” value ([1]; human, in vivo) is given as “reducing the lymphocyte count in the peripheral blood” and the “side effect (bradycardia)” value [2] is given as “causing bradycardia after administration”.
In the case of CCCCCCCCc1ccc(CCC(N)(CO)COP(=O)(O)O)cc1 (stereo not shown) [phosphorylated FTY720], the “binding to S1P receptor subtypes” value (S1P receptor) is given as “binds to multiple subtypes of the S1P receptors, i.e., EDG-1, EDG-3, EDG-6 and EDG-8”.
